Literature values as cited in patent publication US10813957B2, “Engineered oncolytic viruses containing hyper-binding sites to sequester and suppress activity of oncogenic transcription factors as a novel treatment for human cancer” (priority 2016, dated 2020).

Details: background statement

In the case of `NC(=O)OC[C@H]1c2c(O)cc(C=O)cc2N2CC3N[C@@H]3[C@]1(O)O2` (stereo partly shown) [FR900482], the toxicity in humans is given as “high toxicity”.
